Assay results reported in patent US12043597B2, “Crystalline polymorphs of Rivoceranib and Rivoceranib mesylate” (ASSIA CHEMICAL INDUSTRIES LTD., priority 2018, dated 2024).

Assay: Solid-state (polymorphic) stability of the crystalline form under humidity, temperature and mass pressure stress
Type: physicochemical
Excerpt: As used herein, the term “stable” in relation to crystalline Rivoceranib and Rivoceranib mesylate refers to less than 20%, less than 10%, less than 5%, less than 2%, less than 1%, or less than 0.5% conversion of crystalline Rivoceranib or Rivoceranib mesylate to any other solid state form of Rivoceranib or Rivoceranib mesylate, respectively.
As discussed above, depending on which other solid state it is compared with, Form RT2 of Rivoceranib according to the present disclosure may have advantageous properties as described above. Particularly, crystalline Form RT2 of Rivoceranib mesylate of the present disclosure is stable, for example upon exposure to high humidity or high temperature or high mass pressure conditions, such as 60° C./100% RH for up to 7 days or 80% RH at room temperature for 2 days, or under 100° C. for 60 minutes or under mass pressure of 2 ton for 1 minute.

CS(=O)(=O)O.N#CC1(c2ccc(NC(=O)c3cccnc3NCc3ccncc3)cc2)CCCC1 [Form RT2, N-[4-(1-Cyanocyclopentyl)phenyl]-2-(pyridin-4-ylmethylamino)pyridine-3-carboxamide methanesulfonate]
stable: stability upon exposure to high humidity and temperature (60° C./100% RH for up to 7 days) | stability upon exposure to high humidity (80% RH at room temperature for 2 days) | stability upon exposure to high temperature (100° C. for 60 minutes) | stability under high mass pressure (mass pressure of 2 ton for 1 minute)
